Test results as given in patent US20070190554A1, “Novel binding site for retigabine on KCNQ5” (priority 2006, published 2007).
“Also recorded” adds a separate entry of the source. Read-outs that look alike come from different tables or passages of the source.

Columns and labels:
KCNQ1 wild-type = KCNQ1 wild-type (Homo sapiens, UniProt P51787); conditions: FIG. 4A
Source text: The steady state amplitudes of the currents evoked by a series of depolarized voltage pulses from −100 to 80 mV in 10 mV increment were normalized to the level evoked by the membrane potential of 80 mV in the control group. The holding potential was −100 mV.
Expression of KCNQ5 and KCNQ1 channels into Xenopus oocytes—Human KCNQ5 and KCNQ1 genes were cloned into a pKSM vector that has been engineered specifically for oocyte expression. The gene sequences were confirmed by DNA sequencing. […] The constructs were linearized by XbaI restriction enzyme (NEB, Beverly, Mass.). In vitro transcription was performed with an mMESSAGE mMACHINE® kit (Ambion, Austin, Tex.) and the cRNA was purified by phenol extraction. Xenopus oocytes were injected with 46 nl solution containing approximately 9.2 ng cRNA using a Drumond Nanojet oocyte injector (Drummond Scientific Co., Broomall, Pa.). Electrophysiological recording was performed 3-7 days after injection.
Electrophysiology—All experiments were performed at room temperature (22-23° C.) using conventional oocyte two-electrode voltage clamp recording (TEVC). […]
Data analysis—Current amplitude was measured online using HEKA Pulsefit 8.5 software. […] Data were expressed as mean±SE, and the paired student t test was performed. […]

[1] = target: KCNQ5 containing an S5 transmembrane domain from KCNQ1 (Homo sapiens, UniProt Q9NR82, A261I/A269T/F282Y/K264Q/L283F/S263R/V276G/V287A/W270L/Y260F); conditions: 50 μM retigabine
KCNQ5 containing an S5 transmembrane domain from KCNQ1, sequence (Q9NR82 whole entry Y260F/A261I/S263R/K264Q/A269T/W270L/V276G/F282Y/L283F/V287A, the tested form may be a part): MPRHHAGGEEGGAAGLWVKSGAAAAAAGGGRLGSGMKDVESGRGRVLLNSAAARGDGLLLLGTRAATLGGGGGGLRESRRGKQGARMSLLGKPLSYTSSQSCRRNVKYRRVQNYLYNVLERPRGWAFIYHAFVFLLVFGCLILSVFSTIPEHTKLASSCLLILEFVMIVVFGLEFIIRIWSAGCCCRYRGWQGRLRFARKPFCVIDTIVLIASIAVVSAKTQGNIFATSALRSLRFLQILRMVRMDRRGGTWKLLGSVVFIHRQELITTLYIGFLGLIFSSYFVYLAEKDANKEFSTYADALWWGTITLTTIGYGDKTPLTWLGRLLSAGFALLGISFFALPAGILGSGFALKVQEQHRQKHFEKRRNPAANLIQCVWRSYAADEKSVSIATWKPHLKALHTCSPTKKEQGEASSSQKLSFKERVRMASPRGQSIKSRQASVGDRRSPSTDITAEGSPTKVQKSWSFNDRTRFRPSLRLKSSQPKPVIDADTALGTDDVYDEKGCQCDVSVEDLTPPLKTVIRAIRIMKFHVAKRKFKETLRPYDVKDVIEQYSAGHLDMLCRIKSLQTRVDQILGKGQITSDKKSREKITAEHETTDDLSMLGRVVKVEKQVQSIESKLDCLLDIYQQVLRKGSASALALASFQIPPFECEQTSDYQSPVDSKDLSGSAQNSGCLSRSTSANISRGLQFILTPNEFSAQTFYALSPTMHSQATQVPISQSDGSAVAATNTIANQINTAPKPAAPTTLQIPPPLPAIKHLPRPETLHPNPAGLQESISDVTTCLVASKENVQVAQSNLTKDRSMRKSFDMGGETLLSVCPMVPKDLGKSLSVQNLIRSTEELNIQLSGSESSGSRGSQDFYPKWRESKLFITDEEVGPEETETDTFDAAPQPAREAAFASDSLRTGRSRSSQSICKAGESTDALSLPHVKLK
Description: Expression of KCNQ5 and KCNQ1 channels into Xenopus oocytes—Human KCNQ5 and KCNQ1 genes were cloned into a pKSM vector that has been engineered specifically for oocyte expression. […] Xenopus oocytes were injected with 46 nl solution containing approximately 9.2 ng cRNA using a Drumond Nanojet oocyte injector (Drummond Scientific Co., Broomall, Pa.). Electrophysiological recording was performed 3-7 days after injection.
Electrophysiology—All experiments were performed at room temperature (22-23° C.) using conventional oocyte two-electrode voltage clamp recording (TEVC). The recording electrodes were pulled from 1.5 mm glass pipette using a Sutter P-97 micropipette puller (Sutter Instrument, Novato, Calif.) and filled with 3M KCl. The pipette tip was carefully broken off to acquire the electrode resistance at 0.5-1 Mohm. A Dagan CA-1 amplifier (Dagan Corporation, Minneapolis Minn.) was used and the holding potential was clamped at −100 mV. To test voltage dependence of channel activation, a series of depolarized voltage pulses was applied. To observe the time course of retigabine's effect, a single (3 sec) voltage pulse at 40 mV was applied repeatedly at 15 sec intervals. A HEKA computer interface (HEKA Elektronik, Lambrecht, Germany) with Pulse 8.5 software was used to control the amplifier and digitized the data for analysis. Solutions and Chemicals—ND96 solution containing (in mM) NaCl, 96, KCl, 2, CaCl2, 1.8, MgCl2, 1, HEPES, 10 was used for oocyte incubation and recording. Retigabine was made as a stock solution in DMSO at 50 mM and diluted into desired concentrations just before application in experiments. […] In all experiments, DMSO was used less than 0.4%.
Compounds were applied to the cells via a fast bath perfusion system (ALA Scientific Instruments, Westbury, N.Y.), and a bath solution change was completed within 10 seconds.
Data analysis—Current amplitude was measured online using HEKA Pulsefit 8.5 software. To acquire channel conductance from macroscopic current, the K^+ reversal potential was approximated to be −80 mV in ND96 solution and the following equation was applied: G=I/(V+80), where G is the whole oocyte conductance, I is the whole oocyte current, and V is the voltage used to induce the current. Data were expressed as mean±SE, and the paired student t test was performed. Differences were considered to be significant at P<0.05.
To further dissect the action site of retigabine, the S5-S6 transmembrane domain from KCNQ1 was divided into two parts, the S5 transmembrane domain and the S6 transmembrane domain (with linker), and the corresponding chimeric channels of KCNQ5 contained S5 transmembrane domain or S6 transmembrane domain from KCNQ1.

rat KCNQ5 polypeptide = rat KCNQ5 polypeptide (Rattus norvegicus, UniProt F1LY25); conditions: Jensen et al. 2005; cited from earlier work
rat KCNQ5 polypeptide, sequence (F1LY25 1-951): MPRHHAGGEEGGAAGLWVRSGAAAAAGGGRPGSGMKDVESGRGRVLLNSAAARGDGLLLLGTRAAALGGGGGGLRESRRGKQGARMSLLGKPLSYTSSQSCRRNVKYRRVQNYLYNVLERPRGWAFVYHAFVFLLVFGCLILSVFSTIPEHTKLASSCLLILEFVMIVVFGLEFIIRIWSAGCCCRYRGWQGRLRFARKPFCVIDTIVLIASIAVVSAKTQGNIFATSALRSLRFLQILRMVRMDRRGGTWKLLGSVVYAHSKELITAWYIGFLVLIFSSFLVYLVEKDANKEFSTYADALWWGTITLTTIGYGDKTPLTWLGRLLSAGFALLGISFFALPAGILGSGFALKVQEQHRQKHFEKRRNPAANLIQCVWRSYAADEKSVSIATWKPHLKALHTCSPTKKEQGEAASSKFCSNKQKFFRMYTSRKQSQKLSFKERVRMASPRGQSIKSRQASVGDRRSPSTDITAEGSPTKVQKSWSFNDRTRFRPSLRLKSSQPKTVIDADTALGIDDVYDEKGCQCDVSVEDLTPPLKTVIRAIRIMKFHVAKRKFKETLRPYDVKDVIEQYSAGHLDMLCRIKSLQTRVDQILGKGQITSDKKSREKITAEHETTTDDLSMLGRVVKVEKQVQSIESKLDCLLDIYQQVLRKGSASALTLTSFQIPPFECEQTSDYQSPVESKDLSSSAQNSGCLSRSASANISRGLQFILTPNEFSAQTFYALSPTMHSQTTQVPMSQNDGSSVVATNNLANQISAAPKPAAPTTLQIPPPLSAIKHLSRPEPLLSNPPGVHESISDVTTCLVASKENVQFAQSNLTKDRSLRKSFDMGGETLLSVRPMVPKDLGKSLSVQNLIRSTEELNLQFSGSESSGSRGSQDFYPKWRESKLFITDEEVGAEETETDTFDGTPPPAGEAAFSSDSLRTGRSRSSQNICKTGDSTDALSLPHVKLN

KCNQ1(L171W) = target: T1, KCNQ1(L171W) (Homo sapiens, UniProt P51787, L266W); assay: Two-electrode voltage clamp in Xenopus oocytes, KCNQ1(L171W)
T1 sequence (P51787 with tags, fused parts or gaps L266W): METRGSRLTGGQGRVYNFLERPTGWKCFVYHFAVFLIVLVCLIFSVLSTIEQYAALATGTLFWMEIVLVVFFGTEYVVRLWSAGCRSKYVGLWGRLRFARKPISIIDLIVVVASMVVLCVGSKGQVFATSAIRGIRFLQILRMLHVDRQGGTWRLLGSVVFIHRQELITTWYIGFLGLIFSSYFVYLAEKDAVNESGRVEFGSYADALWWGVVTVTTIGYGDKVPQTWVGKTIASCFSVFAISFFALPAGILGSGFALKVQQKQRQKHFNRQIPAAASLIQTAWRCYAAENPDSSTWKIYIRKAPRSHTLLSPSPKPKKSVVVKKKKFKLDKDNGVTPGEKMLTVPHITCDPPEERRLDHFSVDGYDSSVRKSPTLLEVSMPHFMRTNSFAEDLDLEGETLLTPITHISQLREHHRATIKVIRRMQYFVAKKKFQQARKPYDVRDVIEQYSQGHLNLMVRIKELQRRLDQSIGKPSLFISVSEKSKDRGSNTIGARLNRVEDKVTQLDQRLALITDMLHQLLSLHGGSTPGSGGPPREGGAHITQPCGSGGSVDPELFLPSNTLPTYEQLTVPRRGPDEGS

mouse KCNQ5 polypeptide = mouse KCNQ5 polypeptide (Mus musculus, UniProt Q9JK45); conditions: Jensen et al. 2005; cited from earlier work
mouse KCNQ5 polypeptide, sequence (Q9JK45 whole entry): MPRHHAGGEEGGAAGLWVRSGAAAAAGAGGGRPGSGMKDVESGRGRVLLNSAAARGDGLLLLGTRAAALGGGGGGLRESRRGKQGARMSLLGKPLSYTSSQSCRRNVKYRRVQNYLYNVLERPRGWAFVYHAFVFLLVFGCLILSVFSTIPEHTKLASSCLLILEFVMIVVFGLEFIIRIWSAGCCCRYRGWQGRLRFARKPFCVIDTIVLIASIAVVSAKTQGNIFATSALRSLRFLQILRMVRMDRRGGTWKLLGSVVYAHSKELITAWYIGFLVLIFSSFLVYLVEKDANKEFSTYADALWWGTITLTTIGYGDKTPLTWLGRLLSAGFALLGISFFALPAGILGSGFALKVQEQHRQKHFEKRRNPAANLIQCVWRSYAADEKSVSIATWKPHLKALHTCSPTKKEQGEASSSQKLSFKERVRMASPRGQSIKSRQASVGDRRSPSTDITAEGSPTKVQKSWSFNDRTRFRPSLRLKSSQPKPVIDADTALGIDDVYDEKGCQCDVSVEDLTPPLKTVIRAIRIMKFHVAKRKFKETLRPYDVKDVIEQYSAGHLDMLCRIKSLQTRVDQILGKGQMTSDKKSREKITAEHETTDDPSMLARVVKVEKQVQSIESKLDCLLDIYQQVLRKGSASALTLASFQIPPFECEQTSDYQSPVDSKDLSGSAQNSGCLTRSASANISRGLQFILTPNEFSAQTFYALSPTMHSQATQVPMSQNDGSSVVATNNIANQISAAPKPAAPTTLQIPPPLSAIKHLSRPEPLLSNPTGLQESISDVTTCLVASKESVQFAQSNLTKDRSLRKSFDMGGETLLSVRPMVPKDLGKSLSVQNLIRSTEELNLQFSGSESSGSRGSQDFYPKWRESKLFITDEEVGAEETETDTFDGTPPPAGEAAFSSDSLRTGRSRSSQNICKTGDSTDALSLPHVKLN

KCNQ5(A269T) = target: T2, KCNQ5(A269T) (Homo sapiens, UniProt Q9NR82, A269T); assay: Two-electrode voltage clamp in Xenopus oocytes, S5 point mutant KCNQ5(A269T); type: cell-based; conditions: 50 μM retigabine; FIG. 3 bottom panel
T2 construct: mutations in KCNQ5 were generated for each of 7 residues modified individually to the corresponding in KCNQ1; expressed in transfected cells; host or cells: Xenopus oocytes injected with cRNA
T2 sequence (Q9NR82 whole entry A269T): as the sequence (Q9NR82 whole entry Y260F/A261I/S263R/K264Q/A269T/W270L/V276G/F282Y/L283F/V287A, the tested form may be a part) above, with F260Y, I261A, R263S, Q264K, L270W, G276V, Y282F, F283L, A287V counted along it
Description: (§1) FIG. 3 Mutagenesis analysis of S5 domain in KCNQ5. Sequence alignment of all five members in KCNQ family is shown on the top. The most diverse residues between KCNQ1 and the other members are highlighted in bold case and the corresponding residues in KCNQ5 were individually mutated to their counterparts in KCNQ1. Then each mutant with single mutation was tested with 50 μM retigabine and the fold increase (IΔ/I0) in current amplitude was plotted in the graph on bottom. In all mutants, n equals 6.
(§2) The gene sequences were confirmed by DNA sequencing. […] Electrophysiological recording was performed 3-7 days after injection.
(§3) The S5 domains of all five KCNQ members were sequence aligned and searched for unique amino acid residues that might account for the lack of KCNQ1's response to retigabine. As shown in FIG. 3 upper panel, there are ten unmatched residues between KCNQ1 and KCNQ5. Seven of them highlighted in FIG. 3 may be unique for KCNQ1. Therefore, mutations in KCNQ5 were generated for each of 7 residues modified individually to the corresponding in KCNQ1. One mutant, KCNQ5(F282Y) lost its functionality when expressed in oocytes. […] Retigabine's effect on each of these mutants was then tested.

KCNQ5(W270L) = target: T3, KCNQ5(W270L) (Homo sapiens, UniProt Q9NR82, W270L); assay: Two-electrode voltage clamp in Xenopus oocytes, S5 point mutant KCNQ5(W270L); type: cell-based; conditions: 50 μM retigabine; FIG. 3 bottom panel
T3 construct: expressed in transfected cells; host or cells: Xenopus oocytes injected with cRNA
T3 sequence (Q9NR82 whole entry W270L): as the sequence (Q9NR82 whole entry Y260F/A261I/S263R/K264Q/A269T/W270L/V276G/F282Y/L283F/V287A, the tested form may be a part) above, with F260Y, I261A, R263S, Q264K, T269A, G276V, Y282F, F283L, A287V counted along it
Description: as §1, §2, §3

KCNQ1 = KCNQ1 (Homo sapiens, UniProt P51787); conditions: background statement; cited from earlier work
Wild type KCNQ5 = Wild type KCNQ5 (Homo sapiens, UniProt Q9NR82); conditions: cited from earlier work
Wild type KCNQ5, sequence (Q9NR82 whole entry, the tested form may be a part): as the sequence (Q9NR82 whole entry Y260F/A261I/S263R/K264Q/A269T/W270L/V276G/F282Y/L283F/V287A, the tested form may be a part) above, with F260Y, I261A, R263S, Q264K, T269A, L270W, G276V, Y282F, F283L, A287V counted along it

[2] = target: KCNQ5 containing an S5-S6 transmembrane domain from KCNQ1 (Homo sapiens, UniProt Q9NR82, A261I/A269T/A329S/A332S/F282Y/G330C/G335A/I307V/INS291VNESG/K264Q/K293V/L283F/L309V/L320Q/L323V/L326T/L327I/L333V/L334F/N292R/R325K/S263R/S296G/S328A/T297S/T306V/T318V/V276G/V287A/W270L/Y260F); conditions: 50 μM retigabine
KCNQ5 containing an S5-S6 transmembrane domain from KCNQ1, sequence (Q9NR82 other isoform, or with tags, fused parts or gaps with the stated changes): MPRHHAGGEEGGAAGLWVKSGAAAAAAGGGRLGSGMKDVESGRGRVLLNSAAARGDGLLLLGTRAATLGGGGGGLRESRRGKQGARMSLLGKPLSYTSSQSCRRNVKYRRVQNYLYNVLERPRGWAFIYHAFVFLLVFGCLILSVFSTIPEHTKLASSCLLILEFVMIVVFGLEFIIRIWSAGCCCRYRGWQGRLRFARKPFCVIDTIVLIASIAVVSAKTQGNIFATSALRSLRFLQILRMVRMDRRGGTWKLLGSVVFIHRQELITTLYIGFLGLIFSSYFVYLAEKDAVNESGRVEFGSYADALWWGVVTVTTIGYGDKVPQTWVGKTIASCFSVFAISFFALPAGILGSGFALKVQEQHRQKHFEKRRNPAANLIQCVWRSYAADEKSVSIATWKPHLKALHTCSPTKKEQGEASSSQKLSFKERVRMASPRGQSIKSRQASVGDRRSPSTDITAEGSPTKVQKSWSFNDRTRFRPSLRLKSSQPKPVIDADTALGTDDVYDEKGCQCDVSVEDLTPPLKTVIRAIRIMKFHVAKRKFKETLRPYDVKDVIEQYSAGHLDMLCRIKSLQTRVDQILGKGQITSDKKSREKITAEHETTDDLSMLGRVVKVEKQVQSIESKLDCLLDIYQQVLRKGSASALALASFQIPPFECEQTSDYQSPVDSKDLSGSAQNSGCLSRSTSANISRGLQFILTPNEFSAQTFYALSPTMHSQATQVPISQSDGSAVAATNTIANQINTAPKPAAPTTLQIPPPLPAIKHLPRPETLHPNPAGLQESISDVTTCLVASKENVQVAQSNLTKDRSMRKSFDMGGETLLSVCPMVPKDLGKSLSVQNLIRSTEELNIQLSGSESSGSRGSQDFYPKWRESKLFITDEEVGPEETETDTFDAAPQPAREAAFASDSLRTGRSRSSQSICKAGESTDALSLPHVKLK
Source text: Differences were considered to be significant at P<0.05.
All mutations were confirmed by DNA sequencing.

CCOC(=O)Nc1ccc(NCc2ccc(F)cc2)cc1N [retigabine, N-(2-amino-4-(4-fluorobenzylamino)-phenyl)carbamic acid ethyl ester]
response of channel current (KCNQ1 wild-type; 50 μM retigabine): no significant response | response of channel current (KCNQ1 wild-type; 200 μM retigabine): slightly inhibitory response | channel current induced by depolarization to 40 mV ([1]; 5 min of bath application): remained unchanged | current amplitude and voltage dependence of the currents (I-V curves before and after treatment) ([1]; FIG. 2A right panel, FIG. 2C): Neither current amplitude nor voltage dependence of the currents was modified | effect on the mutant channel ([1]; FIG. 2B): no longer had effect | current (I)-voltage relationship in the absence vs presence of retigabine ([1]; p>0.05): No significant difference | sensitivity of the channel to retigabine (rat KCNQ5 polypeptide): sensitive | steady state current amplitude (KCNQ1(L171W); 50 μM retigabine, FIG. 4B): clearly reduced | voltage dependence of channel activation (KCNQ1(L171W); FIG. 4D and inset (200 μM)): modified the voltage dependence of channel activation | activation kinetics of the current (KCNQ1(L171W); current evoked at 80 mV, FIG. 4C): from a single to a double exponential activation time course | kind of effect on the channel (activated or blocked) (KCNQ1(L171W); oocytes, TEVC): blocked | inhibition at 200 µM (KCNQ1(L171W); read-out: inhibition of the steady-state current): 62.5% | sensitivity of the channel to retigabine (mouse KCNQ5 polypeptide): sensitive | response to retigabine (fold increase IΔ/I0 in current amplitude) (KCNQ5(A269T)): significantly less response | response to retigabine (fold increase IΔ/I0 in current amplitude) (KCNQ5(W270L)): significantly less response; also recorded: completely lost the response | enhancing effect on the channel (KCNQ1): no enhancing effect | responsiveness of the channel to retigabine (Wild type KCNQ5; Wickendon et al. 2001): responsive | opening of KCNQ channels (Wild type KCNQ5; background statement): open | current (I)-voltage relationship in the absence vs presence of retigabine ([2]; 5 min after the application, p>0.05): No significant difference | change of current amplitude and voltage dependent activation ([2]; 5 min application period, FIG. 1C): neither current amplitude nor voltage dependent activation changed significantly | effect on channel activities ([2]; oocytes, FIGS. 1A and 1B): no longer augmented the channel activities
